Laboratory results reported in EP2435019B1, “DODECA-2E,4E-DIENE AMIDES AND THEIR USE AS MEDICAMENTS AND COSMETICS” (Dr. August Wolff GmbH & Co. KG Arzneimittel, priority 2009, dated 2010).
Where two headings read alike, the source gives them in different places.

Columns and labels:
CB1 = target: T1, CB1 (Homo sapiens, UniProt P21554); assay: Radioligand displacement assay on CB1 receptor; assay type: binding
T1 construct: purchased Perkin Elmer RBHCB1M

[1] = test system: Arachidonoylethanolamide Transport (AEAT); assay: Cellular uptake of [3H]-AEA in U937 cells (assay C); assay type: cell-based, Human; settings: Homo sapiens, U-937, read-out: EC50 value, AEA re-uptake inhibition
Method: 5x10^5 cells were collected and suspended in 500 µL of sterile PBS (Sigma, San Louis, MO, US) using glass silanized tubes. Cells were pre-incubated 10 min at 37°C in presence of test compounds in a concentration range of 10^-8 - 10^-4 M or in presence of the same amount of solvent (control). Then a mixture of 50 nM [^3H]-AEA (60 Ci/mmol) (American Radiolabeled Chemicals, Inc., San Louis, MO, US) and 50 nM of nonradioactive AEA (Tocris Cookson Ltd., Bristol, UK) was added and samples were incubated at 37°C for different times in the range of 1-60 min. The reaction was stopped by rapid filtration over Whatman GF/C filters pre-soaked in 0,25 % BSA. […] The filters-bound radioactivity was measured using a Beckman LS6500 scintillation counter. Results were expressed as % of AEA uptake versus cells treated with solvent and the EC50 and IC50 values were calculated from the sigmoidal curves, which were generated using the GraphPad Prism (GraphPad Software, San Diego, CA, US).

TNF-alpha release = assay: LPS-induced TNF-alpha release from human macrophages (ELISA); assay type: cell-based; settings: Figure 4; LPS 500 ng/ml; 5 µM for 18 h
Method: • Figure 1: AEA re-uptake inhibition of 2E,4E-dieneamides 1 and 9 into human primary monocytes and U937 cells. […] Data are mean values ± SEM of 3 independent experiments in a sigmoidal dose-response curve. • Figure 2: Concentration-dependent effects of 4 and 5 on FAAH activity. […] The maximal inhibition (32%) of 5 was measured at 1 µM. Data are mean values ± SEM of 3 independent experiments. • Figure 3: Effects of low nM concentrations of N-alkylamide 7 on FAAH activity alone and in combination with the FAAH inhibitor URB597. […] Data are mean values ± SEM of 3 independent experiments. • Figure 4: 1 and 9 inhibit LPS-induced TNF-alpha release into culture medium (measured by ELISA). Human macrophages (10^6 cells) were stimulated with LPS (500 ng/ml) and treated with UCM707 and/or compounds 1 and 9 at 5 µM for 18 h. N = 3 ± SEM. • Figure 5: UCM707 (positive control) and compounds 1 and 9 diminish NO2^- production. Human macrophages (10^6 cells) were stimulated with LPS (500 ng/ml) and treated with UCM707 and/or compounds 1 and 9 at 5 µM for 18 h. Culture supernatants were assayed for nitrite levels, using the Griess reagent as a reflection of NO production. […]

CB2 = CB2 (Homo sapiens, UniProt P34972); assay: Radioligand displacement assay on CB2 receptor; assay type: binding; set-up: purchased Perkin Elmer RBXCB2M
Sequence of CB2 (P34972 whole entry): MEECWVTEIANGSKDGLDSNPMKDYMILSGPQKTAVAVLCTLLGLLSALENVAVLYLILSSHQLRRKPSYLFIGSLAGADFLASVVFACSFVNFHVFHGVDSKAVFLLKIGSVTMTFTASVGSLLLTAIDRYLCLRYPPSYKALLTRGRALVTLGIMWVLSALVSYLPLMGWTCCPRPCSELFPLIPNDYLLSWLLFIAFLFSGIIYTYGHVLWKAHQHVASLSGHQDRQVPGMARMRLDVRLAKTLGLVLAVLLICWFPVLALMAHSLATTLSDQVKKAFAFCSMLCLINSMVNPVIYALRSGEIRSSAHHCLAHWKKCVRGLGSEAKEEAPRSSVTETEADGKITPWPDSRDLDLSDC

T1 sequence (P21554 whole entry): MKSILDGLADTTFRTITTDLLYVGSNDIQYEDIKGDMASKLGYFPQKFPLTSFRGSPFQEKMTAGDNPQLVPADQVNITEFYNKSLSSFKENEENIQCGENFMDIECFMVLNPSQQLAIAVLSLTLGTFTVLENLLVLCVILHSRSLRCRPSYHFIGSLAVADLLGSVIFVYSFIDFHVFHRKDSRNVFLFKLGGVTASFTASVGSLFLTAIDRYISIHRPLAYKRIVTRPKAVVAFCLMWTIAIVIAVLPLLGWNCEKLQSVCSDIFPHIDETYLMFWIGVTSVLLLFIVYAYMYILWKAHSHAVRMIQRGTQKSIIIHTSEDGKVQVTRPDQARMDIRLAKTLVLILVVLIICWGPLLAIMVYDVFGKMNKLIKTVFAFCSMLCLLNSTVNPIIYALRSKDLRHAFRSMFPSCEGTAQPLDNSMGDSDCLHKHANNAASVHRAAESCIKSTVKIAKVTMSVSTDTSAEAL

SMILES	Ki (CB1) [µM]	EC50 [1] [nM]	LPS-induced TNF-alpha release into culture medium (TNF-alpha release)	Ki (CB2; displacement of 0.11 nM [3H]CP55,940, membrane recombinantly over-expressing CB2, read-out: Receptor affinity Ki CB2) [µM]	Ki (CB2) [µM]
CCCCCCC/C=C/C=C/C(=O)NCCc1cccc(OC)c1 [Example 9, (2E,4E)-N-(3-methoxyphenethyl)dodeca-2,4-diene amide]	> 20	869 ± 172	inhibit	9.44 ± 0.889	–
CCCCCCC/C=C/C=C/C(=O)NCCO [Example 1, (2E,4E)-N-(2-hydroxyethyl)dodeca-2,4-diene amide]	> 20	1230 ± 305	inhibit	–	> 20
